Laboratory results reported in ChEMBL document CHEMBL1156981, “NGF-potentiating vibsane-type diterpenoids from Viburnum sieboldii” (Bioorg Med Chem Lett, 2010).
Calls of active or inactive are those of the source. The calls are words filed in the database; no cut-off is given here.

What was measured:
Assay type in all cases: functional, cell-based
PC-12 [1] = test: Induction of neurite outgrowth in rat PC12 cells assessed as morphological changes after 48 hrs by phase-contrast microscopy
PC-12 [2] = test: Potentiation of NGF-induced neurite outgrowth in rat PC12 cells assessed as morphological changes at 0.1 to 40 uM after 48 hrs by phase-contrast microscopy
PC-12 [3] = test: Potentiation of NGF-induced neurite outgrowth in rat PC12 cells assessed increase in neurite length extending from cell bodies at 0.1 to 40 uM after 48 hrs by phase-contrast microscopy
PC-12 [4] = test: Potentiation of NGF-induced neurite outgrowth in rat PC12 cells assessed increase in neurite length extending from cell bodies after 48 hrs by phase-contrast microscopy
PC-12 [5] = test: Potentiation of NGF-induced neurite outgrowth in rat PC12 cells assessed as morphological changes after 48 hrs by phase-contrast microscopy

Structure (SMILES) | Activity (PC-12 [1]) | Activity (PC-12 [2]) | Activity (PC-12 [3]) | Activity (PC-12 [4]) | Activity (PC-12 [5])
CC(=O)C[C@@H]1C[C@@]2(C)CC=C3CO[C@@H](CC(C)=O)[C@]3(O1)[C@@H]2/C=C/OC(=O)C=C(C)C | inactive |  |  |  | 
COC(C)(C)/C=C/C[C@@]1(C)CC=C(CO)C(=O)[C@@H](CC(C)=O)[C@@H]1/C=C/OC(=O)C=C(C)C | inactive | inactive | inactive |  | 
COC(C)(C)/C=C/C[C@@]1(C)CC=C(CO)C(=O)[C@H](CC(C)=O)[C@@H]1/C=C/OC(=O)C=C(C)C | inactive | inactive | inactive | inactive | 
COC(C)(C)/C=C/C[C@@]1(C)CC=C2CO[C@H]3C[C@@](C)(OC)O[C@@]23[C@@H]1/C=C\OC(=O)C=C(C)C | inactive |  |  | Dose-dependent effect | Dose-dependent effect
CO[C@]1(C)C[C@@H]2OCC3=CC[C@](C)(C/C=C/C(C)C)[C@@H](/C=C/OC(=O)C=C(C)C)[C@]32O1 | inactive |  |  | Dose-dependent effect | Dose-dependent effect
COC(C)(C)/C=C/C[C@@]1(C)CC=C2CO[C@H]3C[C@@](C)(OC)O[C@@]23[C@@H]1/C=C/OC(=O)C=C(C)C | inactive |  |  |  | 
COC(C)(C)/C=C/C[C@@]1(C)CC=C2CO[C@H]3C[C@](C)(OC)O[C@@]23[C@@H]1/C=C/OC(=O)C=C(C)C | inactive |  |  | Dose-dependent effect | Dose-dependent effect
CO[C@@]1(C)C[C@@H]2OCC3=CC[C@](C)(C/C=C/C(C)C)[C@@H](/C=C/OC(=O)C=C(C)C)[C@]32O1 | inactive |  |  | Dose-dependent effect | Dose-dependent effect
